For assay [1], the target named is T1, human recombinant histamine H2 receptor (Homo sapiens, UniProt P25021).
T1 construct: expressed in transfected cells; host or cells: CHO-K1 cells
The experiment in a line: Histamine H2 radioligand binding ([125I]aminopotentidine). The conditions noted are these: read-out: Histamine Binding (1 μM) H2, percent inhibition of specific binding. The procedure, abridged: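 CHO-K1 membranes expressing the receptor were incubated in 50 mM phosphate buffer pH 7.4 with 0.1 nM [125I]aminopotentidine for 120 minutes at 25° C., with nonspecific binding defined by 3 μM tiotidine. Compounds were tested at 1 μM (1% DMSO); bound radioligand was counted after filtration, values given as percent inhibition of specific binding.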

Assay [2] deals with T2, human recombinant histamine H1 receptor (Homo sapiens, UniProt P35367).
T2 construct: expressed in transfected cells; host or cells: CHO cells
The experiment in a line: Histamine H1 radioligand binding ([3H]Pyrilamine). Particulars: read-out: Histamine Binding (1 μM) H1, percent inhibition of specific binding. The procedure, abridged: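 Recombinant human H1 receptor expressed in CHO cells, in Tris-HCl pH 7.4 with MgCl2, NaCl and sucrose, incubated with 1.2 nM [3H]pyrilamine for 180 min at 25 °C; non-specific binding defined with 1 μM pyrilamine. Compounds tested at 1 μM in 1% DMSO; filter-bound counts give percent inhibition of specific binding.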

Assay [3] has as its target T3, human recombinant adrenergic α1D receptor (Homo sapiens, UniProt P25100).
T3 construct: expressed in transfected cells; host or cells: HEK-293 cells
T3 sequence (P25100 1-572): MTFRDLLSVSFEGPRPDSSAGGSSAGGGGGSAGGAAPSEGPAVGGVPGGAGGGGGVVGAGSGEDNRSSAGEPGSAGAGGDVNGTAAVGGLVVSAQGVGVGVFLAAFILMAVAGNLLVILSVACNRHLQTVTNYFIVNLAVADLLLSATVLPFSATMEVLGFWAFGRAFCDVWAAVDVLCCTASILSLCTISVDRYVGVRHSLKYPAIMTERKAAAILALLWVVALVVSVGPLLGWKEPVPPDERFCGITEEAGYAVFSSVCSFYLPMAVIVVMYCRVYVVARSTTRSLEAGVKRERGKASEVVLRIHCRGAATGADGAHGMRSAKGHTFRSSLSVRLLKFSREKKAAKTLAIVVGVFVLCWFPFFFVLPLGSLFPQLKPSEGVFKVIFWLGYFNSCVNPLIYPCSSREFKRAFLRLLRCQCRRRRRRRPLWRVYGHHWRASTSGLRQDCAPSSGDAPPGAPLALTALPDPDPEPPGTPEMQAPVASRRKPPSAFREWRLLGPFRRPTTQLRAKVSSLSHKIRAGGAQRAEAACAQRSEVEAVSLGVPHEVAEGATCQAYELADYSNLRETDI
The experiment in a line: Adrenergic α1D radioligand binding ([3H]Prozosin). The conditions noted are these: read-out: Adrenergic (1 μM) α1D, percent inhibition of specific binding. Put shortly:
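Membranes of HEK-293 cells expressing human α1D receptor incubated with 0.6 nM [3H]prazosin and compound (1 μM or lower, 1% DMSO) for 60 min at 25° C in 50 mM Tris-HCl pH 7.4. Non-specific binding defined with 10 μM phentolamine; filtration read-out given as percent inhibition of specific binding.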

Assay [4] concerns the target T4, human recombinant serotonin (5-Hydroxytryptamine) 5-HT2C receptor (Homo sapiens, UniProt P28335).
T4 construct: expressed in transfected cells; host or cells: CHO-K1 cells
T4 sequence (P28335 33-458): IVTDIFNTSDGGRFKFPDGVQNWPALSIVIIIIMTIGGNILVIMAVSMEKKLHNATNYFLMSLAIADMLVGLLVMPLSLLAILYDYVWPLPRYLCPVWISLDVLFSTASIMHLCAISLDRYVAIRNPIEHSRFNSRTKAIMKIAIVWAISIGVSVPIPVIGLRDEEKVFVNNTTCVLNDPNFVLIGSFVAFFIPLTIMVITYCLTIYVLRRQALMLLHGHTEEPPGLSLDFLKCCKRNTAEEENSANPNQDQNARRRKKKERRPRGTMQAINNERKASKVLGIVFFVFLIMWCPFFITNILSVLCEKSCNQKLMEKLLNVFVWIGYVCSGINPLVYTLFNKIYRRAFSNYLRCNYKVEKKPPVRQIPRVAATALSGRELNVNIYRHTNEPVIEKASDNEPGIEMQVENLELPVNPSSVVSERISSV
The experiment in a line: Serotonin 5-HT2C radioligand binding ([3H]Mesulergine). Particulars: read-out: Serotonin (1 μM) 5-HT2C, percent inhibition of specific binding. The procedure, abridged: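 Membranes from CHO-K1 cells expressing the human receptor were incubated 60 min at 25 °C with 1 nM [3H]mesulergine in 50 mM Tris-HCl pH 7.4 with ascorbic acid and pargyline; 1 μM mianserin defined non-specific binding.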

The mark [5] stands for this setting: compound at 1 μM, HEK-293 cells.

For 18 compounds, inhibition results are on record in patent publication US9115137B2, “2,3,4,5-tetrahydro-1H-pyrido[4,3-B]indole compounds and methods of use thereof” (priority 2008, dated 2015).

A word on the inhibition: it is the change of the read-out against control, counted positive when it falls.

The structures appear in SMILES notation. Where two headings read alike, the source gives them in different places.

T2 sequence (P35367 whole entry): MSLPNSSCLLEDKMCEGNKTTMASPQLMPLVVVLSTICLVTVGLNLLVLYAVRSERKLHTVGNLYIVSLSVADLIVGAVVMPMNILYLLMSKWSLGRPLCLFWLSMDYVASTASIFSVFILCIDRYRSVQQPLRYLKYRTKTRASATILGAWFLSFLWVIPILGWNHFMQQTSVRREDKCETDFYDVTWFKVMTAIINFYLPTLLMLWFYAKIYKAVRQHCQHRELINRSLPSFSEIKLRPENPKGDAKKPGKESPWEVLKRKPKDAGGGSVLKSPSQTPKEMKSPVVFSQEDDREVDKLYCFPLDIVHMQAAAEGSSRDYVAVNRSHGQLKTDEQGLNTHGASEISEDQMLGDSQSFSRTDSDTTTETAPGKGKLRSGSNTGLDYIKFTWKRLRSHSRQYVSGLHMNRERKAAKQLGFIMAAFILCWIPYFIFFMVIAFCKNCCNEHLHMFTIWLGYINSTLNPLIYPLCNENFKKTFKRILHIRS
T1 sequence (P25021 whole entry): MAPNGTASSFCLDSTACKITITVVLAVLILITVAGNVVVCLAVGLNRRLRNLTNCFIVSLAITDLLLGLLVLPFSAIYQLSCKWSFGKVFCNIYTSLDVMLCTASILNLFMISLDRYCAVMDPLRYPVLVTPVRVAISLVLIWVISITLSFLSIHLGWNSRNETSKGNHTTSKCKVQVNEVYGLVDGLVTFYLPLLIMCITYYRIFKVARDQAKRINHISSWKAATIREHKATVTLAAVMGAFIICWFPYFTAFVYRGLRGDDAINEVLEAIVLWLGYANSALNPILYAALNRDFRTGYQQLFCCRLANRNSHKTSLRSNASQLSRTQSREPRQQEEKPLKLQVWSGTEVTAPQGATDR

`Cc1ccc2c(c1)c1c(n2CCC(=O)Nc2ccc(F)cc2)CCN(C)C1` [Compound 47, N-(4-fluorophenyl)-3-(1,2,3,4-tetrahydro-2,8-dimethylpyrido[4,3-b]indol-5-yl)propanamide]: the inhibition at 1 µM in assay [1] (compound at 1 μM, CHO K1 cells) worked out at 53%; in assay [2] (compound at 1 μM, CHO cells), 90%; in assay [3] (setting [5]) it was 80%; in assay [4] (compound at 1 μM, CHO-K1 cells), 90%.
For `CN1CCc2c(c3cc(Cl)ccc3n2CCO)C1` [CD89, 2-(8-chloro-2-methyl-3,4-dihydro-1H-pyrido[4,3-b]indol-5(2H)-yl)ethanol], the inhibition at 1 µM came out at 14% in assay [1] (compound at 1 μM, CHO K1 cells); 92% in assay [2] (compound at 1 μM, CHO cells); 69% in assay [3] (setting [5]); 84% in assay [4] (compound at 1 μM, CHO-K1 cells).
`CN1CCc2c(c3cc(Cl)ccc3n2CC(=O)NC2CCCC2)C1` [Compound 27, 2-(8-chloro-1,2,3,4-tetrahydro-2-methylpyrido[4,3-b]indol-5-yl)-N-cyclopentylacetamide]: the inhibition at 1 µM is 5% in assay [1] (compound at 1 μM, CHO K1 cells); 63% in assay [2] (compound at 1 μM, CHO cells); 18% in assay [3] (setting [5]); 28% in assay [4] (compound at 1 μM, CHO-K1 cells).
For the compound `CCNC(=O)Cn1c2c(c3cc(C)ccc31)CN(C)CC2` [Compound 22, N-ethyl-2-(1,2,3,4-tetrahydro-2,8-dimethylpyrido[4,3-b]indol-5-yl)acetamide], the inhibition at 1 µM in assay [1] (compound at 1 μM, CHO K1 cells) turned out to be 11%; in assay [2] (compound at 1 μM, CHO cells), 85%; in assay [3] (setting [5]) it was 23%; in assay [4] (compound at 1 μM, CHO-K1 cells) it was 81%.
Regarding `Cc1ccc2c(c1)c1c(n2CCO)CCN(C)C1` [CD90, 2-(2,8-dimethyl-3,4-dihydro-1H-pyrido[4,3-b]indol-5(2H)-yl)ethanol], the inhibition at 1 µM was 11% in assay [1] (compound at 1 μM, CHO K1 cells); 60% in assay [2] (compound at 1 μM, CHO cells); 23% in assay [3] (setting [5]); 91% in assay [4] (compound at 1 μM, CHO-K1 cells).
The matching figures for `CN1CCc2c(c3cc(Cl)ccc3n2CCC(=O)N(C)C)C1` [Compound 49, 3-(8-chloro-1,2,3,4-tetrahydro-2-methylpyrido[4,3-b]indol-5-yl)-N,N-dimethylpropanamide]: 5%, 82%, 18% and 47%.
As to `Cc1ccc2c(c1)c1c(n2CC#N)CCN(C)C1` [CD61, 2-(1,2,3,4-tetrahydro-2,8-dimethylpyrido[4,3-b]indol-5-yl)acetonitrile], the inhibition at 1 µM in assay [1] (compound at 1 μM, CHO K1 cells) is 15%; in assay [2] (compound at 1 μM, CHO cells), 98%; in assay [3] (setting [5]), 74%; in assay [4] (compound at 1 μM, CHO-K1 cells) it was 73%.
As for `Cc1ccc2c(c1)c1c(n2CCNC(=O)C(C)C)CCN(C)C1` [Compound 61, N-(2-(1,2,3,4-tetrahydro-2,8-dimethylpyrido[4,3-b]indol-5-yl)ethyl)isobutyramide], the inhibition at 1 µM is 13% in assay [1] (compound at 1 μM, CHO K1 cells); 32% in assay [2] (compound at 1 μM, CHO cells); 28% in assay [3] (setting [5]); 27% in assay [4] (compound at 1 μM, CHO-K1 cells).
With `Cc1ccc2c(c1)c1c(n2CCC(=O)NCC2CCCCC2)CCN(C)C1` [Compound 30, N-(cyclohexylmethyl)-3-(1,2,3,4-tetrahydro-2,8-dimethylpyrido[4,3-b]indol-5-yl)propanamide], the inhibition at 1 µM in assay [1] (compound at 1 μM, CHO K1 cells) is 41%; in assay [2] (compound at 1 μM, CHO cells) it was 18%; in assay [3] (setting [5]) it was 73%; in assay [4] (compound at 1 μM, CHO-K1 cells), 93%.
As for `CCOC(=O)CCn1c2c(c3cc(C)ccc31)CN(C)CC2` [CD1, ethyl 3-(1,2,3,4-tetrahydro-2,8-dimethylpyrido[4,3-b]indol-5-yl)propanoate], the inhibition at 1 µM in assay [1] (compound at 1 μM, CHO K1 cells) was 35%; in assay [2] (compound at 1 μM, CHO cells) it was 101%; in assay [3] (setting [5]) it was 54%; in assay [4] (compound at 1 μM, CHO-K1 cells), 93%.
Regarding `Cc1ccc2c(c1)c1c(n2CCNC(=O)c2ccncc2)CCN(C)C1` [Compound 50, N-(2-(1,2,3,4-tetrahydro-2,8-dimethylpyrido[4,3-b]indol-5-yl)ethyl)isonicotinamide], the inhibition at 1 µM came to 9% in assay [1] (compound at 1 μM, CHO K1 cells); 47% in assay [2] (compound at 1 μM, CHO cells); 37% in assay [3] (setting [5]); 35% in assay [4] (compound at 1 μM, CHO-K1 cells).
Take `CN1CCc2c(c3cc(Cl)ccc3n2CC(=O)O)C1` [CD46, 2-(8-chloro-1,2,3,4-tetrahydro-2-methylpyrido[4,3-b]indol-5-yl)acetic acid]: the inhibition at 1 µM in assay [1] (compound at 1 μM, CHO K1 cells) was -3%; in assay [2] (compound at 1 μM, CHO cells), 69%; in assay [3] (setting [5]), 10%; in assay [4] (compound at 1 μM, CHO-K1 cells), 30%.
As to `CN1CCc2c(c3cc(Cl)ccc3n2CCBr)C1` [CD88, 5-(2-bromoethyl)-8-chloro-2-methyl-2,3,4,5-tetrahydro-1H-pyrido[4,3-b]indole], the inhibition at 1 µM in assay [1] is 64%; in assay [2] it was 98%; in assay [3], 94%; in assay [4] it was 84%.
As for `Cc1ccc2c(c1)c1c(n2CCNC(=O)C2CCCCC2)CCN(C)C1` [Compound 62, N-(2-(1,2,3,4-tetrahydro-2,8-dimethylpyrido[4,3-b]indol-5-yl)ethyl)cyclohexanecarboxamide], the inhibition at 1 µM in assay [1] (compound at 1 μM, CHO K1 cells) is 39%; in assay [2] (compound at 1 μM, CHO cells), 63%; in assay [3] (setting [5]), 64%; in assay [4] (compound at 1 μM, CHO-K1 cells) it was 54%.
`CN1CCc2c(c3cc(Cl)ccc3n2CCC(=O)NC2CCCC2)C1` [Compound 31, 3-(8-chloro-1,2,3,4-tetrahydro-2-methylpyrido[4,3-b]indol-5-yl)-N-cyclopentylpropanamide]: the inhibition at 1 µM in assay [1] (compound at 1 μM, CHO K1 cells) worked out at 20%; in assay [2] (compound at 1 μM, CHO cells), 45%; in assay [3] (setting [5]), 61%; in assay [4] (compound at 1 μM, CHO-K1 cells) it was 76%.
The corresponding values for `CCOC(=O)Cn1c2c(c3cc(C)ccc31)CN(C)CC2` [CD57, ethyl 2-(1,2,3,4-tetrahydro-2,8-dimethylpyrido[4,3-b]indol-5-yl)acetate] are 28%, 100%, 39% and 96%.
As for `CCCCOC(=O)Cn1c2c(c3cc(Cl)ccc31)CN(C)CC2` [Compound 52, butyl 2-(8-chloro-1,2,3,4-tetrahydro-2-methylpyrido[4,3-b]indol-5-yl)acetate], the inhibition at 1 µM came to 23% in assay [1] (compound at 1 μM, CHO K1 cells); 98% in assay [2] (compound at 1 μM, CHO cells); 58% in assay [3] (setting [5]); 85% in assay [4] (compound at 1 μM, CHO-K1 cells).
With `Cc1ccc2c(c1)c1c(n2CC(=O)Nc2ccc(F)cc2)CCN(C)C1` [Compound 51, N-(4-fluorophenyl)-2-(1,2,3,4-tetrahydro-2,8-dimethylpyrido[4,3-b]indol-5-yl)acetamide], the inhibition at 1 µM in assay [1] (compound at 1 μM, CHO K1 cells) worked out at 8%; in assay [2] (compound at 1 μM, CHO cells), 85%; in assay [3] (setting [5]), 29%; in assay [4] (compound at 1 μM, CHO-K1 cells), 70%.
